Experimental findings from US9429582B2, “Tyrosine-phosphorylated WBP2, a novel cancer target and biomarker” (National University of Singapore, priority 2010, dated 2016) are described below.

Common to all, as to format: cell-based, human
The test system of assay [1] is WBP2. Put plainly: Estrogen/progesterone-induced WBP2 tyrosine phosphorylation in MCF7 (IP/IB). The conditions noted are these: 10 nM E2 or 100 nM P4 for 24 hr, 10 μM Iressa pre-treatment for 1 hr.
Experimental: A: Serum-starved cells were stimulated with 50 ng/ml EGF (E) for 5 min or hormone-stripped cells were stimulated with 10 nM Estrogen (E2) or 100 nM Progesterone (P4) for 24 hr with/without 10 μM Iressa (Ir) pre-treatment for 1 hr. Whole cell lysates were used for IP/IB analysis with antibodies indicated. […] D: Serum-starved MCF7 were stimulated with 50 ng/ml EGF (E) for 5 min or hormone-stripped cells were stimulated with 10 nM estrogen (E2) or 100 nM progesterone (P4) for 24 hr with/without 10 μM Iressa (Ir) pre-treatment for 1 hr. Whole cell lysates were used for IP/IB analysis with antibodies indicated. […] 24 hr post-transfection, serum-starved MCF7 were stimulated with 50 ng/ml EGF (E) for 5 min or hormone-stripped cells were stimulated with 10 nM Estrogen (E2) or 100 nM Progesterone (P4) for 24 hr. Whole cell lysates were used for IP/IB analysis with antibodies indicated. “O” denotes “untreated/vehicle-treated”
For all experiments involving estrogen/progesterone (Sigma), MCF7 and T47D were cultured in Phenol-Red Free RPMI1640 (Sigma) containing 5% Charcoal-dextran Stripped FBS (Hyclone) for at least 2 days before stimulation. […] Fresh hormone/drug was replenished every day for treatment that last for more than 1 day.
MCF7, MDA-MB231, T47D, HeLa and MCF10A were from American Type Culture Collection. […]
The test system of assay [2] is WBP2. Put plainly: Subcellular fractionation of T47D, nuclear WBP2 upon estrogen stimulation. The conditions noted are these: 10 nM E2 0-24 hr, 1 hr pretreatment with 10 μM Iressa. The method, then:
(§1) A: Hormone-stripped MCF7 or T47D were co-transfected with vector, WBP2-WT or WBP2-Y192-231F mutant and ERE/PRE-Luciferase reporter constructs. Cells were either left alone or stimulated with (a) 50 ng/ml EGF for 5 min, (b) 10 nM E2/100 nM P4 for 24 hr, (c) E2/P4 and EGF in the absence or presence of 1 hr pretreatment with 100 μM Iressa(Ir). ERα/PR-transactivated luciferase activities in various conditions were then assayed. **P<0.01, ***P<0.001, Student's t-test (2-tailed). B: T47D were hormone-stripped and stimulated with 10 nM E2 for the indicated time (0-24 hr) in the absence and presence of 1 hr pretreatment with 10 μM Iressa(k). C: WT-WBP2 or Y192-231F mutant-transfected T47D were hormone stripped followed by 24 hr stimulation with 10 nM E2. For both experiments B and C, cells were then harvested for subcellular fractionation into nuclear and cytoplasmic fractions, which were used for IB/IP analysis with antibodies indicated. Histone 2A and GADPH were used as nuclear and cytoplasmic marker respectively. […] ERE (Top panel)/PR (Bottom panel)-transactivated luciferase activities in various conditions were then assayed analyzed in relative to vehicle-treated vector control. **P<0.01, ***P<0.001, Student's t-test (2-tailed). […] ERα-transactivated luciferase activities in various conditions were then assayed analyzed in relative to vehicle-treated vector control. […]

The subject of the next assay is PR. Put plainly: PRE-Luciferase reporter assay in T47D. The following applies: 100 nM P4 24 hr, 1 hr pretreatment with Iressa. The protocol: as §1
On the technique in general: In a reporter assay the amount or activity of a reporter protein is the signal.

The subject of the next assay is ERα. As to the kind of experiment: ERE-Luciferase reporter assay in MCF7. The following applies: MCF7; 10 nM E2 24 hr; 1 hr pretreatment with Iressa. The method, then: as §1

For the compound `COc1cc2ncnc(Nc3ccc(F)c(Cl)c3)c2cc1OCCCN1CCOCC1` [Iressa], the “estrogen/progesterone-induced WBP2 phosphorylation” value in the assay with WBP2 [1] is on record as “Significant abolishment”. The “nuclear WBP2 upon estrogen stimulation” value in the assay with WBP2 [2] was “reduced”. Further, the “progesterone-induced coactivator activity of WBP2 (PR reporter)” value in the assay with PR was “abolished”. In the assay on ERα, the “estrogen-induced coactivator activity of WBP2 (ERα reporter)” value is listed as “abolished”.
